The target of data set [1] is T1, CYP450 1A2 (Homo sapiens, UniProt P05177).
T1 construct: purchased BD Gentest (Franklin Lakes, NJ)
T1 sequence (P05177 1-516): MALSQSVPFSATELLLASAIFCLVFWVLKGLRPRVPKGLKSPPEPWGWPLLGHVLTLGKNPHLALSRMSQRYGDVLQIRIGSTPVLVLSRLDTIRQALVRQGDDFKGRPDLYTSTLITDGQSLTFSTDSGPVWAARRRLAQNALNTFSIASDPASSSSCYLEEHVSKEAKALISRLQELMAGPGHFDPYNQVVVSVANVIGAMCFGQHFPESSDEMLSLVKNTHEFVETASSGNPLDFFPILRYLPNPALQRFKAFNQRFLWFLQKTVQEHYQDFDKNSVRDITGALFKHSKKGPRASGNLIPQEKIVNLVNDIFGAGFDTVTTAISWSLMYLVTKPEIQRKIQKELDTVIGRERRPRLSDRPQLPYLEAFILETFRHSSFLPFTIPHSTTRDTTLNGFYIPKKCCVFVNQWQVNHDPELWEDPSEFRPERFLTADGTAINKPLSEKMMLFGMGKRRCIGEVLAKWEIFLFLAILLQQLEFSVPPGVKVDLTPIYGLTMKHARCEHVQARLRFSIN
As to the kind of experiment: CYP450 inhibition kit (drug-drug interaction), 1A2. It counts as biochemical. The method, then: (§1) Low IC50s against specific cytochrome P450 isoforms may indicate the potential for a harmful drug interaction to occur in vivo with substrates of that isoform. A lack of metabolic stability in vitro may indicate potential metabolic instability in vivo, and, therefore, a shorter half-life. Drug interaction potential was evaluated in vitro using BD Gentest (Franklin Lakes, NJ) CYP450 inhibition kits as recommended by the manufacturer. Metabolic stability assessments were conducted using in vitro liver microsomes. […] The reaction is started with the addition of 1 U/mL glucose-6-phosphate dehydrogenase G6PD. The mixture is incubated on a shaking platform at 37°C, and aliquots are taken and quenched with the addition of an equal volume of cold acetonitrile at 0, 10, 20, 30, and 60 min. Samples are centrifuged at 3700 rpm for […] at 20°C to remove debris. Sample quantification is carried out by LC/MS, and metabolic half-life is calculated by log plots of the total ion chromatograph area remaining.

Data set [2] is described as follows: metabolic stability in mouse liver microsomes. The settings on record: for half-life at 1 μM: pH 7.4, mouse liver microsomes, read-out: Half-life in mouse micro. In kind it is in vitro ADME. How it is done:
as §1, with “Interesting compounds were also submitted for drug-drug interaction and metabolic stability assays. Low” for “Low”
(Liver microsomes are vesicles of endoplasmic reticulum, rich in cytochrome P450 enzymes.)

Data set [3] in a line: in vitro. As to conditions: mouse. The method, then:
General cytotoxicity was assessed by first determining LC50 's against a rodent macrophage (RAW) cell line using the 3-(4,5-dimethylthiazole-2-yl)-2,5-diphenyltetrazolium bromide (MTT) assay as described in one of our earlier studies. This screen was conducted to identify compounds that may require de-selection due to generalized toxicity. […] In vitro neurocytotoxicity was assessed by determining LC50s against primary mouse neurons using the MTT assay as described previously. Inhibition of the A2A and A1 receptors was determined at 200 nM in duplicate by Caliper Biosciences (Hanover, Maryland).

Data set [4] has as its system P. falciparum strain TM90C2A. As to the kind of experiment: labeled hypoxanthine susceptibility assay, P. falciparum TM90C2A. It counts as cell-based, Plasmodium falciparum. The settings on record: for IC90: Plasmodium falciparum, TM90C2A; for CSI (C2A/W2): ratio of IC90 C2A to IC90 W2. The method, then: (§2) The in vitro activities of quinoline methanols against P. falciparum strains W2, D6, TM91C235, and TM90C2A were evaluated using the traditional labeled hypoxanthine assay of Desjardins et al as modified by Milhous et al. These four P. falciparum strains were selected since they have various levels of resistance to conventional anti-malarials.

Data set [5] concerns the target T2, CYP450 2C9 (Homo sapiens, UniProt P11712).
T2 construct: purchased BD Gentest (Franklin Lakes, NJ)
Briefly: CYP450 inhibition kit (drug-drug interaction), 2C9. It counts as biochemical. How it is done:
as §1

The test system of data set [6] is P. falciparum strain W2. Briefly: labeled hypoxanthine susceptibility assay, P. falciparum W2. The settings on record: Plasmodium falciparum. It counts as cell-based, Plasmodium falciparum. The method, then:
as §2

Data set [7] concerns MDR1-transfected MDCK cell monolayers. Briefly: in vitro. As to conditions: dog, MDCK-MDR1, 2 h, 5 μM, pH 7.4. How it is done: For this reason, the apparent permeability of selected compounds across MDR1-transfected MDCK cell monolayers was determined. This assay is an in vitro surrogate of the blood-brain barrier.
Permeability was determined by Absorption Systems (Exton, PA). MDR1-MDCK cell monolayers were grown to confluence on collagen-coated, microporous, polycarbonate membranes in 12-well Costar Transwell plates. […] The permeability assay buffer was Hanks Balanced Salt Solution containing 10 mM HEPES and 15 mM glucose at a pH of 7.4. A known p-glycoprotein inhibitor cyclosporin A (CSA) was also added to the assay buffer at 10 μM. Bovine serum albumin (1%) was added to the receiver well. The dosing solution concentrations of the test compounds were 5.0 μM in the assay buffer. All cell monolayers were first pre-incubated for 30 minutes with assay buffer. After 30 minutes, the buffer was removed, replaced with fresh buffer, and time was recorded as 0. […] Cell monolayers were dosed on the apical side (A-to-B) or basolateral side (B-to-A) and incubated at 37°C with 5% CO2 in a humidified incubator. After 2 hours, aliquots were taken from the receiver chambers. Samples were taken from the donor chamber at 0 and 2 hours. Each determination was performed in duplicate. The lucifer yellow flux was also measured for each monolayer to ensure no damage was inflicted to the cell monolayers during the flux period. All samples were assayed by LC/MS/MS using electrospray ionization.
Apparent permeability in the apical (A-B direction), PappA-B, and percent recovery are reported. Apparent permeability is a measure of the rate of transport across the cell monolayer. Percent recovery refers to the amount of compound recoverable at the end of the assay. Low recovery may indicate non-specific binding to assay plates, instability or accumulation in the cell pellet.
The apparent permeability, Papp, and percent recovery were calculated as follows:
Papp = (dCr/dt) × Vr/(A × C0) (1)
Percent Recovery = 100 × ((Vr × Cr^final) + (Vd × Cd^final))/(Vd × […]) (2)

Data set [8] deals with T3, CYP450 2C19 (Homo sapiens, UniProt P33261).
T3 construct: purchased BD Gentest (Franklin Lakes, NJ)
T3 sequence (P33261 whole entry): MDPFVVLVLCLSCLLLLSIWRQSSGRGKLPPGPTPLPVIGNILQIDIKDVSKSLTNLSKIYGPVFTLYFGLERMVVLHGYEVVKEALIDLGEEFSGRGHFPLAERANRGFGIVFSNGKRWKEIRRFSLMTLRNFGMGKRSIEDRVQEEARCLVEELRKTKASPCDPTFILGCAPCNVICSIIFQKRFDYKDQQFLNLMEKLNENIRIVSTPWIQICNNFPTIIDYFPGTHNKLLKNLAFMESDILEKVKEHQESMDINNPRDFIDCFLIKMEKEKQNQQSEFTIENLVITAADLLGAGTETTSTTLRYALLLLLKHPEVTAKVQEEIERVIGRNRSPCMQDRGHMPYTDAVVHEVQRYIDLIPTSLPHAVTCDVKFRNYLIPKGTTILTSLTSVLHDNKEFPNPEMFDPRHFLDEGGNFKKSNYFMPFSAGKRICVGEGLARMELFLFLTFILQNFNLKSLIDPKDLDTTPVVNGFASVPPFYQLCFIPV
As to the kind of experiment: CYP450 inhibition kit (drug-drug interaction), 2C19. It counts as biochemical. The method, then:
as §1

Where [9] appears, read: read-out: Pf C2A IC90 nM values calculated using MW in Column C.

Converted amounts (≈) assume the structure as drawn. Where two headings read alike, the source gives them in different places.

T2 sequence (P11712 whole entry): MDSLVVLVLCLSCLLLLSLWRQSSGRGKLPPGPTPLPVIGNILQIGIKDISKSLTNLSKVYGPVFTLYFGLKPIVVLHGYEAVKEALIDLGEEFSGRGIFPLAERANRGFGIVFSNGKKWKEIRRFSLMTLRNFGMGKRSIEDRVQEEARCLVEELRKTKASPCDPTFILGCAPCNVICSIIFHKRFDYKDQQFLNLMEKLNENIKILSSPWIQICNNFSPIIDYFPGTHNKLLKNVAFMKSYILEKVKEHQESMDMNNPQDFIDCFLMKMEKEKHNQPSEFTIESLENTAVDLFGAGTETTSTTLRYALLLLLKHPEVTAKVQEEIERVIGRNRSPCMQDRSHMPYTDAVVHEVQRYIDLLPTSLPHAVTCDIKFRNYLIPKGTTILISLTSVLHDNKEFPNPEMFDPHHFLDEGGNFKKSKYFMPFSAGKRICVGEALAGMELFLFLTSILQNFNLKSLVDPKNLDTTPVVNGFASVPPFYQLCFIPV

For orientation: IC50 means the midpoint of a concentration-inhibition curve. Usually half-life stands for how long it takes for the measured level to halve. As usually defined, the IC90 is the concentration at which the effect reaches the 90% level. Turning to `CNCC(O)c1cc(C(F)(F)F)nc2c(C(F)(F)F)cccc12` (stereo not drawn) [WR308245], the IC50 is 1.8 µM in data set [1], greater than 40 µM in data set [5] and 33 µM in data set [8]. Also, the half-life at 1 μM in data set [2] is greater than 1 h. This compound showed a CC50 in data set [3] greater than 120 µM. Moreover, the IC90 in data set [4] (read-out: IC90 Pf C2A) was 0.08 µg/mL; in data set [4] (read-out: IC90 PfC2A), 236 nM; in data set [4] (read-out: PF C2A IC90), 0.0798 µg/mL; in data set [4] (setting [9]), 236 nM; in data set [6] (W2, read-out: IC90 Pf W2) it was 0.017 µg/mL (≈ 0.0503 µM); in data set [6] (W2, read-out: PF W2 IC90) it was 0.0168 µg/mL (≈ 0.0495 µM). For the same compound, the “CSI (C2A/W2)” value in data set [4] is 4.8. Further, the “% recovery (MDCK-MDR1 permeability assay)” value (“% recovery” below) in data set [7] was found to be 59%. For the same compound, in data set [7], the “PappA-B MDCK-MDR1” value is recorded as 24 10^-6 cm/s.
For the compound `CC(C)NCC(O)c1cc(C(F)(F)F)nc2c(C(F)(F)F)cccc12` (stereo not drawn) [WR308257], the values for the IC50 in data set [1], in data set [5] and in data set [8] were 3.9 µM, 37 µM and 26 µM, respectively. The half-life at 1 μM in data set [2] was greater than 1 h. The compound also had a CC50 in data set [3] greater than 120 µM. Moreover, the 90% effect concentration (IC90) in data set [4] (read-out: IC90 Pf C2A) was 0.039 µg/mL; in data set [4] (read-out: IC90 PfC2A) it was 107 nM; in data set [4] (read-out: PF C2A IC90), 0.0392 µg/mL; in data set [4] (setting [9]) it was 107 nM; in data set [6] (W2, read-out: IC90 Pf W2), 0.0047 µg/mL (≈ 0.0128 µM); in data set [6] (W2, read-out: PF W2 IC90), 0.00465 µg/mL (≈ 0.0127 µM). Moreover, in data set [4], the “CSI (C2A/W2)” value is 8.4. Further, in data set [7], the “% recovery” value is given as 69%.
As for `CSCCCNCC(O)c1cc(C(F)(F)F)nc2c(C(F)(F)F)cccc12` (stereo not drawn) [WR308278], the figures for the IC50 in data set [1], in data set [5] and in data set [8] were 3.5 µM, 6.3 µM and 3.6 µM, respectively. Further, in data set [2], the half-life at 1 μM is 0.167 h. This compound also showed a CC50 in data set [3] greater than 120 µM. The IC90 was 0.054 µg/mL in data set [4] (read-out: IC90 Pf C2A); 132 nM in data set [4] (read-out: IC90 PfC2A); 0.0544 µg/mL in data set [4] (read-out: PF C2A IC90); 132 nM in data set [4] (setting [9]); 0.0097 µg/mL (≈ 0.0235 µM) in data set [6] (W2, read-out: IC90 Pf W2); 0.00969 µg/mL (≈ 0.0235 µM) in data set [6] (W2, read-out: PF W2 IC90). In addition, the “CSI (C2A/W2)” value in data set [4] amounted to 5.6. Also, the “% recovery” value in data set [7] is given as 54%. Moreover, the “PappA-B MDCK-MDR1” value in data set [7] is 38 10^-6 cm/s.
With `OC(CNCCNCc1ccccc1)c1cc(C(F)(F)F)nc2c(C(F)(F)F)cccc12` (stereo not drawn) [WR308396], the 50% inhibitory concentration (IC50) came out at 5.4 µM in data set [1], 14 µM in data set [5] and 5.8 µM in data set [8]. Also, the “HL in Microsomes” value in data set [2] (Figure 3, species of microsomes not given) is greater than 60 min. For the same compound, in data set [2], the half-life at 1 μM was greater than 1 h. The compound also displayed a CC50 in data set [3] of 52 µM. Moreover, the IC90 in data set [4] (read-out: IC90 Pf C2A) was 0.048 µg/mL; in data set [4] (read-out: IC90 PfC2A), 105 nM; in data set [4] (read-out: PF C2A IC90) it was 0.048 µg/mL; in data set [4] (setting [9]), 105 nM; in data set [6] (W2, read-out: IC90 Pf W2), 0.0062 µg/mL (≈ 0.0136 µM). Also, the “CSI (C2A/W2)” value in data set [4] turned out to be 7.7. Further, the “PappA-B MDCK-MDR1” value in data set [7] was 8.4 10^-6 cm/s.
